The values that follow come from patent US20260035340A1, “INHIBITORS OF AKR1C3 AND METHODS OF USE” (BOARD OF REGENTS OF THE UNIVERSITY OF NEBRASKA, priority 2022, published 2026).

Molecules are shown by their SMILES. Where only a bound is given, the exact number is not on record here.

The nature of data set [1]: In vitro metabolic stability in mouse liver microsomes. Format: in vitro ADME. To be noted: 1 μg/mL. As to the method: (§1) In vitro metabolic stability in liver microsomes: Metabolic stability was assessed using mouse and human liver microsomes, (XenoTech, LLC, Lenexa, KS). Incubation of A1-r and 4r with the microsome fractions was performed in triplicate utilizing a concentration of 1 μg/mL as previously described. Serial samples (40 μL) were collected at selected time intervals and quenched with 300 μL of acetonitrile and then spiked with 10 μL of IS (0.5 μg/mL). All the samples were vortexed and centrifuged at 13,000×g for 15 min, and the supernatant was collected and transferred to an autosampler vial and injected (2 μL) onto the LC-MS/MS system. Testosterone, 7-HC and diclofenac were used as positive controls to ensure that the microsomes and incubation conditions were appropriate to conduct metabolism studies.

Data set [2] in a line: In vitro stability in simulated gastric fluid (SGF). Format: in vitro ADME. To be noted: SGF for 1 h. As to the method:
(§2) In vitro stability studies: Gastrointestinal (GI) fluid stability studies were performed in simulated gastric fluid (SGF) and simulated intestinal fluid (SIF). All the required media were prepared according to the USP guidelines. Mouse plasma stability were performed for neat-spiked and plasma spiked samples (pre-extraction) at 37° C. for 4 h. In addition to the analyte stability in matrix, at 48 h stability of the extracted samples was performed at 4° C. in the autosampler.

The nature of data set [3]: In vitro metabolic stability in human liver microsomes. Format: in vitro ADME. To be noted: 1 μg/mL. As to the method:
as §1
(Microsomes from liver hold many membrane-bound enzymes, among them those of drug oxidation.)

Data set [4] has as its system 22Rv1 tumor xenograft model of prostate cancer. As to the kind of experiment: 22Rv1 tumor xenograft study. Format: in vivo, NSG mice. As to the method:
Tumor xenograft study: All animal experiments were carried out according to approved Institutional Animal Care and Use Committee protocols at the University of Texas Southwestern Medical Center (Dallas, TX). Five-week-old female NSG mice (low circulating testosterone) were implanted with 3×10^6 22 Rv1 cells (ATCC, mycoplasma negative) in matrigel. When tumor volume reached approximately 125 mm^3 (day 11), mice were randomly divided into three groups of six mice. One group was treated with vehicle control PO (0.5% Methocel A4M+0.1% Tween 80)+vehicle IP (10% DMSO/10% cremophor EL/80% D5W). One group was treated with vehicle PO+IP 25 mg/kg A1-r in 10% DMSO/10% cremophor EL/80% D5W. One group was treated with vehicle PO+IP 50 mg/kg 4r in 10% DMSO/10% cremophor EL/80% D5W. Dosing was continued for a total of 26 days. Tumor volumes were measured twice a week with Vernier calipers, and tumor volume was calculated as (L×W^2)×3.14)/6 as previously reported. 2-3 hours after a final IP dose, animals were humanely euthanized, and tumors were collected, weighed, and frozen in liquid nitrogen after taking pictures.

Data set [5] is described as follows: In vitro stability in simulated intestinal fluid (SIF). Type of data set: in vitro ADME. To be noted: SIF for 2 h. As to the method:
as §2

The nature of data set [6]: In vivo pharmacokinetic study, oral gavage. On the set-up: species or system BALB/c mice. The source says: (§3) Liquid chromatography and mass spectrometry (LCMS/MS): The ultra-performance liquid chromatography mass spectrometry system (UPLC-MS/MS) consisted of a Shimadzu 8060NX mass spectrometer and Nexera Series UPLC (Shimadzu Scientific Instruments, Columbia, MD). Analyte separation was achieved utilizing an Acquity UPLC® BEH column (C18, 2.1×100 mm, 1.7 μm) equipped with an Acquity UPLC C18 guard column (Waters, Inc. Milford MA). The mobile phase consisted of water containing 0.1% formic acid (mobile phase A) and methanol (mobile phase B) at a flow rate of 0.25 mL/min operated at room temperature. The total run time was set to last 7.5 min with a gradient elution as follows: 35% B, increasing to 95% B over 3.5 minutes, then held constant for 3.0 minutes, and finally brought back to the initial condition of 35% B in 0.20 minutes followed by 1-minute re-equilibration. The injection volume (2 μL) was consistent for all samples. The auto-sampler chamber was maintained at 4° C. throughout the analysis.
The MS/MS system was operated at unit resolution in the multiple reaction monitoring (MRM) in positive ESI mode, using precursor ion>product ion combinations of 427.20>105.10 for A1-r and 413.15>265.10 m/z for 4r. The mass spectrometer source settings were optimized to the following: nebulizer gas: 2.0 L/min; heating gas: 10 L/min; drying gas: 10 L/min; interface temperature: 300° C.; desolvation line temperature: 250° C.; heat block temperature: 400° C. Data acquisition and quantitation were performed using LabSolutions software Ver.5.99 (Shimadzu Scientific Inc, Columbia, MD).
(§4) Plasma sample preparation: Plasma samples were prepared by spiking 5 μL of the appropriate calibration (CC) and quality (QCs) control working stock into a 45 μL blank mouse plasma. The concentration of the CC ranged from 0.2-1000 ng/mL with the final concentrations of 0.2, 0.5, 1, 5, 10, 50, 100, 500, and 1000 ng/mL. A simple protein precipitation technique using Phree 96 well phospholipid elimination plate (Phenomenex Inc, Torrance CA.) was utilized to isolate analyte from the plasma matrix. The CC, QCs and study plasma samples were added to Phree 96 well plate and spiked with 10 μL of IS a working solution. The precipitation of the matrix proteins was carried out using 300 μL of ice-cold acetonitrile. The plate was again vortexed on mixmate at 950 rpm for 2 min followed by applied 5 psi positive pressure for 10 min (Resprep VM-96 Vacuum Manifold for 96-Well Plates, Catalog #25858) (Restek; Bellefonte, PA) to collect the supernatant. Two microliters of the reconstituted sample was injected into LC-MS/MS for analysis.
In vivo pharmacokinetic studies: Animal studies were approved by the University of Nebraska Medical Center (UNMC) Institutional Animal Care and Use Committee (IACUC protocol number 17-046-06-FC). BALB/c mice were purchased from Charles River Labs. Pharmacokinetic (PK) studies of A1-r and 4r were conducted in BALB/c mice. Animals were housed in the University of Nebraska Medical Center animal facility, for at least 7 days prior to the experiments, in order to acclimatize the animals to the laboratory conditions, at a temperature of 23-24° C., relative humidity of 40-70% and 12/12 h light/dark cycles with free access to food and water. The dosing solution was made of DMSO-Polyethylene glycol 400 (PEG400)-Propylene glycol (PG)-EtOH-Cremophore-PBS (2/20/10/10/5/53% v/v). Compound A1-r or 4r (10 mg/kg) was administered separately by oral gavage. After dosing, approximately 50 μL of blood was collected from the maxillary vein at 5, 15, 30 minutes and 1, 2, 7, and 24 hr (5 mice/group/per time point). A total of three blood samples were collected, with the third blood sample a terminal collection. Plasma was separated by centrifugation at 4,000×g at 4° C. for 10 minutes. The collected plasma samples were stored at −80° C. until analysis. […]

Data set [7] is described as follows: In vitro stability in mouse plasma. Format: in vitro ADME.
Text: as §3
as §4, with “analysis. […]” for “analysis.”

A further data set addresses AKR1C1 (Homo sapiens (Human), UniProt Q04828). Nature of the data set: AKR enzyme inhibition assay, NADP+ dependent oxidation of S-tetralol, AKR1C1. Type of data set: biochemical. To be noted: Table 2; recombinant enzyme, S-tetralol at Km; read-out: IC50 ± SD AKR1C1.
The target of another data set is AKR1C3 (Homo sapiens (Human), UniProt P42330). Nature of the data set: AKR enzyme inhibition assay, NADP+ dependent oxidation of S-tetralol, AKR1C3. To be noted: Table 2. Type of data set: biochemical.
Chain of AKR1C3 (P42330 whole entry): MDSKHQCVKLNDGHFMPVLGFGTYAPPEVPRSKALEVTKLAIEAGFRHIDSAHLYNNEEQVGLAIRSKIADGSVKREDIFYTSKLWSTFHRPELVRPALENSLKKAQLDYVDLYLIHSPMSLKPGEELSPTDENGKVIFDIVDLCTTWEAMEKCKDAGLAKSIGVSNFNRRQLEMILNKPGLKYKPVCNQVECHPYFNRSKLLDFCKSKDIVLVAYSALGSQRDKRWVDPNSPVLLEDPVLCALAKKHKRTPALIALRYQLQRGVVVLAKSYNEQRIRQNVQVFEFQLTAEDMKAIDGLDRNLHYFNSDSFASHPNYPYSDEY
A further data set concerns the target AKR1C2 (Homo sapiens (Human), UniProt P52895). Nature of the data set: AKR enzyme inhibition assay, NADP+ dependent oxidation of S-tetralol, AKR1C2 counter-screen. Type of data set: biochemical. To be noted: Table 2; recombinant enzyme, S-tetralol at Km; read-out: IC50 ± SD AKR1C2.
The next data set deals with AKR1C4 (Homo sapiens (Human), UniProt P17516). Nature of the data set: AKR enzyme inhibition assay, AKR1C4. Type of data set: biochemical. To be noted: Table 2; recombinant enzyme; read-out: IC50 ± SD AKR1C4.
Chain of AKR1C4 (P17516 whole entry): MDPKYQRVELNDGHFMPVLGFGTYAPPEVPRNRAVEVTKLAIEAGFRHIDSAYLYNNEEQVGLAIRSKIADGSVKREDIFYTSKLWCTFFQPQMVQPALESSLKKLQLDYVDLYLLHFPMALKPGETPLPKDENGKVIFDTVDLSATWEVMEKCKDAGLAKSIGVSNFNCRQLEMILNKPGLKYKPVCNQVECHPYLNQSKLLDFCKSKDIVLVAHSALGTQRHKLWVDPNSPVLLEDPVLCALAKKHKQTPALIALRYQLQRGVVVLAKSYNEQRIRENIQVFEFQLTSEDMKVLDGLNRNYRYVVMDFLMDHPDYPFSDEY
Setting [8] is: after oral administration (10 mg/kg) of 4r, Balb/c mice, plasma, mean ± SD, n = 5.
Where [9] appears, read: after oral administration (10 mg/kg) of A1-r, Balb/c mice, mean ± SD, n = 5.
Where [10] appears, read: after oral administration (10 mg/kg) of A1-r, Balb/c mice, plasma, mean ± SD, n = 5.

Chain of AKR1C1 (Q04828 whole entry): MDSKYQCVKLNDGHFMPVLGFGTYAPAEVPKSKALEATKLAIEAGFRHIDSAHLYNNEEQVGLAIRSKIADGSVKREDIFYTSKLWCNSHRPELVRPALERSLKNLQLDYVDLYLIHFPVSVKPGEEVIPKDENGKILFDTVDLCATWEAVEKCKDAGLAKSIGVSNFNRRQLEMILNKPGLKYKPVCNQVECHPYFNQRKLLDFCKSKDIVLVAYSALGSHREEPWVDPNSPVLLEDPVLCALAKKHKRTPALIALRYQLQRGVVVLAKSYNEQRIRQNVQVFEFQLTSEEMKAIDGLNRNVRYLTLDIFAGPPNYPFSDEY
Chain of AKR1C2 (P52895 whole entry): as the sequence (Q04828 whole entry) above, with T38V, R47H, L54V, C87S, V151M, R170H, Q172L counted along it
Description for AKR1C1: (§5) Assay of enzyme activity: The dehydrogenase activities of AKR1C1, AKR1C2, and AKR1C3 were determined by measuring the formation of NADH formation at 340 nm using Beckman DU640 spectrophotometer. […] After continuously monitoring for 5 min, the increase in UV absorption using different concentrations of enzyme were recorded to calculate the initial velocity and determine enzyme specific activity. IC50 value determination: The inhibitory potency for each compound was represented by IC50 value and measured as described before. […] The concentration of S-tetralol used in the assays for each AKR1C isoform was equal to the Km value for the respective enzyme so that IC50 values could be directly compared assuming a competitive pattern of inhibition. […] In this equation, “range” is the fitted uninhibited value minus the “background”, and “S” is a slope factor. “I” is the concentration of inhibitor. The equation assumes that y falls with increasing “I”.
Description for AKR1C2: (§6) Structure-Activity Relationship: The ability of compounds to inhibit AKR1C3 in the first instance were determined by measuring the NADP+ dependent oxidation of S-tetralol catalyzed by recombinant enzyme as described herein. […] Assay of enzyme activity: The dehydrogenase activities of AKR1C1, AKR1C2, and AKR1C3 were determined by measuring the formation of NADH formation at 340 nm using Beckman DU640 spectrophotometer. […] After continuously monitoring for 5 min, the increase in UV absorption using different concentrations of enzyme were recorded to calculate the initial velocity and determine enzyme specific activity. IC50 value determination: The inhibitory potency for each compound was represented by IC50 value and measured as described before. […] The concentration of S-tetralol used in the assays for each AKR1C isoform was equal to the Km value for the respective enzyme so that IC50 values could be directly compared assuming a competitive pattern of inhibition. […] In this equation, “range” is the fitted uninhibited value minus the “background”, and “S” is a slope factor. “I” is the concentration of inhibitor. The equation assumes that y falls with increasing “I”.
Description for AKR1C3: as §6
Description for AKR1C4: as §5

The Cmax is the maximum level reached in the sampled fluid or tissue. What is called Tmax is the time from dosing to the highest level. For the compound `COC(=O)/C=C/c1cc(C(=O)NCc2ccc(C)cc2)cc(-c2ccc3ncnn3c2)c1` [Compound 4r, Methyl (E)-3-(3-([1,2,4]triazolo[1,5-a]pyridin-6-yl)-5-((4-methylbenzyl)carbamoyl)phenyl)acrylate], the “degraded in MLM” value in data set [1] was “approximately 25%”. Besides, the “stability in simulated gastric fluid (SGF)” value in data set [2] is recorded as “stable”. The “degraded in HLM” value in [3] is “approximately 25%”. For the same compound, the “reduction of tumor volume” value in [4] (25 mg/Kg IP once a day for 26 days, 22Rv1 tumors in NSG mice) is recorded as “approximately 30%”. Moreover, the “reduction of tumor burden” value in data set [4] (50 mg/Kg IP once a day for 26 days, 22Rv1 tumors in NSG mice) is reported as “approximately 45%”. In [4] (25 and 50 mg/Kg IP once a day for 26 days, NSG 22Rv1 tumor-bearing mice), the mouse body weight entry was “no observed loss of mouse body weight”. Moreover, the “stability in simulated intestinal fluid (SIF)” value in data set [5] is “stable”. In addition, in data set [6] (setting [8]), the AUC0-t is 36.416 ng·h/mL, the maximum concentration (Cmax) is listed as 92.796 ng/mL and the Tmax turned out to be 19 min. In data set [6] (oral 10 mg/Kg 4r, 1 hour post administration), the “detection in systemic circulation 1 hour post administration” value is listed as “undetectable”. The “time until reduced to below detectable limits in mouse plasma” value in data set [7] (exposure to mouse plasma) is at most 30 min. Moreover, the “stability in mouse plasma” value in [7] (mouse plasma, 37° C.) is on record as “unstable”.

As a reminder, the IC50 is the concentration at which inhibition is half-maximal. In the case of `Cc1ccc(CNC(=O)c2cc(/C=C/C(=O)O)cc(-c3ccc4ncnn4c3)c2)cc1` [Compound A1-r, (E)-3-(3-([1,2,4]triazolo[1,5-a]pyridin-6-yl)-5-((4-methylbenzyl)carbamoyl)phenyl)acrylic acid], the “metabolic stability in MLM” value in data set [1] (% parent remaining) is reported as “stable”. The half-maximal inhibitory concentration (IC50) at AKR1C1 was above 100 µM. The “stability in simulated gastric fluid (SGF)” value in [2] is reported as “stable”. For the same compound, the “metabolic stability in HLM” value in data set [3] (% parent remaining) was “stable”. Further, the “Selectivity 1C2:1C3” value at AKR1C3 (ratio of AKR1C2 to AKR1C3 IC50) amounted to 1216. In addition, the 50% inhibitory concentration (IC50) at AKR1C3 (recombinant enzyme, S-tetralol at Km, read-out: IC50 ± SD AKR1C3) is 0.051 ± 0.006 µM. The 50% inhibitory concentration (IC50) at AKR1C2 worked out at 62 ± 21 µM. Also, the “stability in simulated intestinal fluid (SIF)” value in data set [5] was “stable”. Besides, the 50% inhibitory concentration (IC50) on AKR1C4 turned out to be 43 ± 6 µM. In addition, in data set [6] (setting [8]), the AUC0-t was 6382.8 ng·h/mL, the Cmax was 11599.4 ng/mL and the Tmax was 12 min. Further, in data set [6] (setting [9]), the CI/F is 323 mL/min/kg, the “Extrapolated AUC %” value is on record as 28.8% and the Vz/F stood at 405.0 L/kg. Moreover, in data set [6] (setting [10]), the AUC0-INF came out at 515.1 ng·h/mL, the AUC0-t is 367.6 ng·h/mL, the maximum concentration (Cmax) turned out to be 174.8 ng/mL and the time to peak (Tmax) was found to be 6 min. Also, the t1/2 in data set [6] (setting [10]) came to 864 min. Further, the “detection at the last study point (24 hours)” value in data set [6] (oral 10 mg/Kg 4r, 24 hours) is reported as “detected”. Besides, the “time at which detected in plasma after oral administration” value in [6] (oral 10 mg/Kg, male Balb/C mice) was at most 5 min. The “time stable in mouse plasma” value in data set [7] (mouse plasma) is “over 240 minutes”.
